Like-named read-outs stand apart in the source and are kept apart here.
Assays:
[1] = test system: human recombinant MAO A; conditions: cited from earlier work
[2] = test system: human recombinant MAO B; conditions: cited from earlier work
[3] = molecular target: T1, human recombinant MAO-A (Homo sapiens, UniProt P21397); assay: kynuramine oxidation deamination assay, MAO-A inhibition (IC50); type: biochemical; conditions: kynuramine 80 μM, mean ± S.D. of triplicate
T1 construct: purchased BD Biosciences (Bedford, MA, USA)
T1 sequence (P21397 1-527): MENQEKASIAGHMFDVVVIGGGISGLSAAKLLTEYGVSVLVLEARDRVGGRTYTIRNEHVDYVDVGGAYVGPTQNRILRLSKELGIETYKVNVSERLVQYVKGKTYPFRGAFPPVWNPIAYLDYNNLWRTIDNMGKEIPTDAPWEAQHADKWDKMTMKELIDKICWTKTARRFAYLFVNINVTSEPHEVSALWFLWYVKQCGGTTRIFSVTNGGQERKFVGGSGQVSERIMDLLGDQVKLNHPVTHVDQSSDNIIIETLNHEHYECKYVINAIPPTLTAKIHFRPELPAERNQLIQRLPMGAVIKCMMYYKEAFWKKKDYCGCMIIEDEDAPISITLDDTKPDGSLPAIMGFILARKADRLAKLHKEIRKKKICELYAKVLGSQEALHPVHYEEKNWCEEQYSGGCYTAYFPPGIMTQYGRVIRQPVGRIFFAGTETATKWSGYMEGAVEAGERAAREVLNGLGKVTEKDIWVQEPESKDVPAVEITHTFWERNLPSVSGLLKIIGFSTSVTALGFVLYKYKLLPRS
Procedure: (§1) A fixed single concentration of kynuramine substrate and varying concentrations of the test inhibitor were used to determine the IC50 values. The kynuramine concentrations for MAO-A and -B were 80 μM and 50 μM, respectively. These concentrations of kynuramine were twice the apparent KM value for substrate binding. […] Enzymatic reactions were performed in 50 μL of the assay mixture containing 0.1 M potassium phosphate buffer, pH 7.4. […] Reactions were initiated by the addition of 12.50 μL of MAO-A (to 5 μg/mL) or -B (to 10 μg/mL). The plate was incubated for 20 min at 37 °C, and the enzymatic reaction was terminated by the addition of 18.8 μL of 2N NaOH. Formation of the enzyme product, 4-hydroxyquinoline, was measured fluorometrically using a SpectraMax M5 fluorescence plate reader (Molecular Devices, Sunnyvale, CA, USA) with excitation (320 nm) and emission (380 nm) wavelengths and the Soft Max Pro program. The inhibition effects of enzyme activity were calculated as percent of product formation compared to the corresponding control (enzyme–substrate reaction) without inhibitors. Controls included the assays where the enzyme or the substrate was added after terminating the reaction to determine the interference with the fluorescence measurements. The IC50 values for MAO-A and -B inhibition were calculated from the concentration-dependent inhibition curves using XLFit® software.

[4] = molecular target: T2, human recombinant MAO-B (Homo sapiens, UniProt P27338); assay: kynuramine oxidation deamination assay, MAO-B inhibition (IC50); type: biochemical; design: purchased BD Biosciences (Bedford, MA, USA); conditions: for Selectivity Index MAO-A/B: ratio of IC50 MAO-A / MAO-B; for IC50: recombinant human MAO-B, kynuramine 50 μM, mean ± S.D. of triplicate
T2 sequence (P27338 1-520): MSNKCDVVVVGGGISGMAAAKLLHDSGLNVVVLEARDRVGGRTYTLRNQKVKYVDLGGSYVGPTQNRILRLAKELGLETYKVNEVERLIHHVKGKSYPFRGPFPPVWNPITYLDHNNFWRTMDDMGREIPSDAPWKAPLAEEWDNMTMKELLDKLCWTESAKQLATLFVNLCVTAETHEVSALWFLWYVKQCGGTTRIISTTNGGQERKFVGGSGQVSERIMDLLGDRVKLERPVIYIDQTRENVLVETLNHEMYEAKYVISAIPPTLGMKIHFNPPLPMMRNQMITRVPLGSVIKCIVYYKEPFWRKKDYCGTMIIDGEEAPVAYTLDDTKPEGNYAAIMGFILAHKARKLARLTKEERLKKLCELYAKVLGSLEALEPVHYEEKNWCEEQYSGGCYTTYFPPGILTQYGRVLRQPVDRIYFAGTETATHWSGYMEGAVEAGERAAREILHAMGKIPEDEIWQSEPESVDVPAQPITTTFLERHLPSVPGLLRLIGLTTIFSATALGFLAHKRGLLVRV
Procedure: as §1, with “The kynuramine concentrations for MAO-A and -B were 80 μM and 50 μM, respectively.” left out

Row | IC50 [3] | Selectivity Index MAO-A/B [4] | IC50 [4] | Compound | other results
1 | 0.117 ± 0.05 µM | 2.4 | 0.049 ± 0.0035 µM | COc1cc(O)c(C(=O)/C=C/c2ccc(OC(C)C)cc2)c(OC)c1 [Compound 2a, (E)-1-(2-Hydroxy-4,6-dimethoxyphenyl)-3-(4-isopropoxyphenyl)prop-2-en-1-one] | 
2 | > 100 µM | >37.9 | 2.64 ± 0.088 µM | COc1cc(OC)c2c(=O)cc(-c3ccc(OC(C)C)cc3)oc2c1 [Compound 2b, 2-(4-Isopropoxyphenyl)-5,7-dimethoxy-4H-chromen-4-one] | 
3 | > 100 µM | >58.8 | 1.7 ± 0.076 µM | CCCOc1ccc(-c2cc(=O)c3c(OC)cc(OC)cc3o2)cc1 [Compound 1b, 5,7-Dimethoxy-2-(4-propoxyphenyl)-4H-chromen-4-one] | 
4 | 40.5 ± 2.37 µM | 97.1 | 0.417 ± 0.012 µM | COc1cc(O)c2c(=O)cc(-c3ccc(NC(C)C)cc3)oc2c1 [Compound 7d, 5-Hydroxy-2-(4-(Isopropylamino)phenyl)-7-methoxy-4H-chromen-4-one] | 
5 | 85.5 ± 1.59 µM | 55.0 | 1.55 ± 0.137 µM | CCCNc1ccc(-c2cc(=O)c3c(O)cc(OC)cc3o2)cc1 [Compound 6d, 5-Hydroxy-7-methoxy-2-(4-(propylamino)phenyl)-4H-chromen-4-one] | 
6 | 87.8 ± 5.45 µM | 3.1 | 28.4 ± 2.64 µM | COc1cc(OC)c2c(=O)cc(-c3ccc(Br)cc3)oc2c1 [Compound 6b, 2-(4-Bromophenyl)-5,7-dimethoxy-4H-chromen-4-one] | 
7 | 39.1 ± 5.14 µM | 3.1 | 12.7 ± 0.29 µM | COc1cc(OC)c2c(=O)cc(-c3ccc(NCC4CC4)cc3)oc2c1 [Compound 8c, 2-(4-((Cyclopropylmethyl)amino)phenyl)-5,7-dimethoxy-4H-chromen-4-one] | 
8 | 9.42 ± 1.78 µM | 1.1 | 8.33 ± 0.787 µM | C#CCOc1ccc(/C=C/C(=O)c2c(O)cc(OC)cc2OC)cc1 [Compound 4a, (E)-1-(2-Hydroxy-4,6-dimethoxyphenyl)-3-(4-(prop-2-yn-1-yloxy)phenyl)prop-2-en-1-one] | 
9 | 39.1 ± 0.555 µM | 17.9 | 2.19 ± 0.088 µM | COc1cc(O)c2c(=O)cc(-c3ccc(NCC4CC4)cc3)oc2c1 [Compound 8d, 2-(4-((Cyclopropylmethyl)amino)phenyl)-5-hydroxy-7-methoxy-4H-chromen-4-one] | 
10 | > 100 µM | >4.5 | 22.1 ± 2.48 µM | CCCNc1ccc(-c2cc(=O)c3c(OC)cc(OC)cc3o2)cc1 [Compound 6c, 5,7-Dimethoxy-2-(4-(propylamino)phenyl)-4H-chromen-4-one] | 
11 | > 100 µM | >1 | > 100 µM | C#CCOc1ccc(-c2cc(=O)c3c(OC)cc(OC)cc3o2)cc1 [Compound 4b, 5,7-Dimethoxy-2-(4-(prop-2-yn-1-yloxy)phenyl)-4H-chromen-4-one] | 
12 | > 100 µM | >4.4 | 22.8 ± 2.1 µM | COc1cc(OC)c2c(=O)cc(-c3ccc(OCC4CC4)cc3)oc2c1 [Compound 5b, 2-(4-(Cyclopropylmethoxy)phenyl)-5,7-dimethoxy-4H-chromen-4-one] | 
13 | 37.5 ± 0.476 µM | 4.0 | 9.45 ± 0.113 µM | COc1cc(OC)c2c(=O)cc(-c3ccc(NC(C)C)cc3)oc2c1 [Compound 7c, 2-(4-(Isopropylamino)phenyl)-5,7-dimethoxy-4H-chromen-4-one] | 
14 | 0.515 ± 0.024 µM | 1.3 | 0.4 ± 0.024 µM | CCCOc1ccc(/C=C/C(=O)c2c(O)cc(OC)cc2OC)cc1 [Compound 1a, (E)-1-(2-Hydroxy-4,6-dimethoxyphenyl)-3-(4-propoxyphenyl)prop-2-en-1-one] | 

Continued, compound first:

Row | Compound | IC50 [3] | Selectivity Index MAO-A/B [4] | IC50 [4] | other results
15 | COc1cc(O)c2c(=O)cc(-c3ccc(O)cc3)oc2c1 [Genkwanin] |  |  |  | IC50 ([1]; human recombinant, kynuramine): 0.14 ± 0.01 µM; Selectivity Index MAO-A/B [2]: 0.40; IC50 ([2]; human recombinant, kynuramine): 0.35 ± 0.03 µM
16 | O=c1cc(-c2ccc(O)cc2)oc2cc(O)cc(O)c12 [Apigenin] |  |  |  | IC50 ([1]; human recombinant, kynuramine): 0.64 ± 0.11 µM; IC50 ([2]; human recombinant, kynuramine): 1.12 ± 0.27 µM
17 | O=c1c(O)c(-c2ccc(O)c(O)c2)oc2cc(O)cc(O)c12 [Quercetin] |  |  |  | IC50 [1]: 1.52 ± 0.09 µM; Selectivity Index MAO-A/B [2]: 0.05; IC50 ([2]; human recombinant, kynuramine): 28.4 ± 5.41 µM
18 | COc1cc(-c2oc3cc(O)cc(O)c3c(=O)c2O)ccc1O [Isorhamnetin] |  |  |  | IC50 ([1]; human recombinant, kynuramine): 6.42 ± 7.69 µM; Selectivity Index MAO-A/B [2]: 0.30; IC50 ([2]; human recombinant, kynuramine): 21.2 ± 4.99 µM
19 | COc1cc(OC)c2c(=O)cc(-c3ccc(OCC(C)C)cc3)oc2c1 [Compound 3b, 2-(4-Isobutoxyphenyl)-5,7-dimethoxy-4H-chromen-4-one] | > 100 µM | >13.8 | 7.23 ± 2.14 µM | 
20 | COc1ccc2c(c1)[nH]c1c(C)nccc12 [Harmine, reference compound] |  |  | 39 ± 1.41 µM | 
21 | COc1cc(O)c(C(=O)/C=C/c2ccc(Br)cc2)c(OC)c1 [Compound 6a, (E)-3-(4-Bromophenyl)-1-(2-hydroxy-4,6-dimethoxyphenyl)prop-2-en-1-one] | 12.3 ± 0.249 µM |  | > 100 µM | 
22 | C#CCN[C@@H]1CCc2ccccc21 [Rasagiline] |  |  |  | nature of MAO-B inhibition (reversible/irreversible) [2]: irreversible MAO-B inhibitors; selectivity towards MAO-B against MAO-A [2]: 103 fold
24 | COc1cc(O)c(C(=O)/C=C/c2ccc(OCC3CC3)cc2)c(OC)c1 [Compound 5a, (E)-3-(4-(Cyclopropylmethoxy)phenyl)-1-(2-hydroxy-4,6-dimethoxyphenyl)prop-2-en-1-one] | 1.3 ± 0.09 µM | 1.4 | 0.9 ± 0.035 µM | 
25 | COc1ccc(-c2oc3cc(O)cc(O)c3c(=O)c2O)cc1 [4′-O-Methyl kaempferol] |  |  |  | IC50 ([1]; human recombinant, kynuramine): 1.35 ± 0.198 µM; IC50 ([2]; human recombinant, kynuramine): > 100 µM
26 | COc1ccc(-c2oc3cc(O)cc(O)c3c(=O)c2OC)cc1 [3,4′-Di-O-methyl kaempferol] |  |  |  | IC50 ([1]; human recombinant, kynuramine): 0.033 ± 0.042 µM; IC50 ([2]; human recombinant, kynuramine): 9.67 ± 2.39 µM
27 | COc1cc(O)c(C(=O)/C=C/c2ccc(OCC(C)C)cc2)c(OC)c1 [Compound 3a, (E)-1-(2-Hydroxy-4,6-dimethoxyphenyl)-3-(4-isobutoxyphenyl)prop-2-en-1-one] | 0.42 ± 0.002 µM | 1.9 | 0.22 ± 0.0211 µM | 
28 | COc1ccc(-c2cc(=O)c3c(O)cc(O)cc3o2)cc1O [Diosmetin] |  |  |  | IC50 ([1]; human recombinant, kynuramine): 5.74 ± 0.57 µM; Selectivity Index MAO-A/B [2]: 3.63; IC50 ([2]; human recombinant, kynuramine): 1.58 ± 0.88 µM
